# Test results from BindingDB's records for doi:10.1016/j.bmcl.2006.10.013 (Abbott Laboratories, 2007).
# Biological target: Transcription factor Jun (Homo sapiens, UniProt P05412)
# Assay: Inhibition of c-Jun phosphorylation in HepG2 cells
# Transcription factor Jun, sequence (P05412 whole entry): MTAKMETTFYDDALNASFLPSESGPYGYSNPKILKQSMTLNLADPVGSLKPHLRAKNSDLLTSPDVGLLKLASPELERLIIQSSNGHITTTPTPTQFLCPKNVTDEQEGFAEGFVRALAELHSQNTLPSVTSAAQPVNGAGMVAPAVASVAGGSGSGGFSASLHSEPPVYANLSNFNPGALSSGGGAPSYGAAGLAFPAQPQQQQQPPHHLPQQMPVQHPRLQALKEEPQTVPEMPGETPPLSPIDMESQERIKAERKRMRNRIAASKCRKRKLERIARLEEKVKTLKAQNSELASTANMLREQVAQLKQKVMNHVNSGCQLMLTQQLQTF
smiles,measurement,value
CCOc1nc(C(=O)NCc2ccc(S(C)(=O)=O)cc2)cc(N)c1C#N [4-amino-5-cyano-6-ethoxy-N-[(4-methanesulfonylphenyl)methyl]pyridine-2-carboxamide],EC50,318 nM
